Experimental data from publication PMC6270839, “Synthesis and Biological Evaluation of Novel 10-Substituted-7-ethyl-10-hydroxycamptothecin (SN-38) Prodrugs” (Molecules, 2014).
Read-outs that look alike come from different tables or passages of the source.

Tests used:
AChE from electric eel = AChE from electric eel (Electrophorus electricus, UniProt O42275); experiment: AChE inhibition assay (modified Ellman method); type: biochemical; conditions: phosphate buffer pH 7.3, 37 °C
Source text: Irinotecan has been reported to be a potent inhibiter of AChE, and inhibition of this enzyme causes acute cholinergic diarrhea. Unlike irinotecan, the compounds we assayed were only weak inhibitors of AChE. […] One possible explanation is that the active site of AChE is present at the bottom of a gorge that is lined with hydrophobic amino acid residues. The terminal dipiperidino moiety in CPT-11 that interacts with amino acid residues within AChE plays a major role in enzyme inhibition, which has been confirmed by X-ray crystallographic studies.
The AChE inhibition by all compounds was studied according to a modification of the method of Ellman et al.. The activity was assayed with AChE from electric eel in the presence or absence of the test compounds in phosphate buffer (pH7.3). After the incubation at 37 °C for 1 min, 0.38 mM 5,5-dithiobisnitrobenzoic acid and 0.56 mM ATCh were added to the buffer. The changes in absorbance were read at 412 nm, per 15 s intervals for 3 min by a spectrophotometer (UV-2500, Shimadzu Corp., Kyoto, Japan).

[1] = test system: SGC-7901 human gastric adenocarcinoma cancer cell line; experiment: MTT in vitro antitumor (antiproliferative) assay, SGC-7901; type: cell-based; conditions: for IC50: Homo sapiens, read-out: IC50 SGC-7901; for fold greater antiproliferative activity (lower IC50) than irinotecan, SGC-7901 cells: IC50 ratio vs irinotecan
Protocol: (§1) The in vitro antitumor activities were evaluated on human cancer cell lines SGC-7901 and HeLa by the MTT assay, using irinotecan as the reference compound.
(§2) The in vitro antitumor activity was evaluated on two human cancer cell lines with the MTT method. SGC-7901 is a human gastric adenocarcinoma cancer cell line and HeLa is a human cervical carcinoma cell line. Cells were provided by the Jilin Province Tumor Institute. Cells were maintained in IMDM medium supplemented with 10% fetal calf serum, 2 mM glutamine, 100 U/mL penicillin, and 100 μg/mL streptomycin, at 37 °C in a humidified atmosphere containing 5% CO2. The human cancer lines SGC-7901 and HELA at a concentration of […] were incubated in a 96-well microtiter plate (100 μL in every well) for 24 h (37 °C, 5%CO2). Then the cells were incubated continuously for 72 h following various concentrations of test drugs were added. The concentrations are 50 μM, 10 μM, 2 μM, 0.4 μM, 0.08 μM, 0.016 μM, 0.0032 μM, respectively. After the 100 μL 0.05% MTT solution was added to each well, the plate was incubated for a further 4 h before removal of medium, the media removed. Formazan crystals were dissolved with 100 μL DMSO, then the absorbance was detected at 490 nm.

[2] = Chemical stability of the prodrugs in PBS (HPLC); type: physicochemical; conditions: for Remaining Prodrugs 1 h pH 4.6 / Remaining Prodrugs 12 h pH 4.6: PBS pH 4.6, 37 °C; for Remaining Prodrugs 1 h pH 7.4 / Remaining Prodrugs 12 h pH 7.4: PBS pH 7.4, 37 °C
Protocol: They were stable at pH 4.6 at 37 °C for 12 h. Except for compound 5h, less than 35% of the prodrugs remained after incubation for 12 h in pH 7.4 buffer. […] For example, less than 30% of the prodrugs 7a–f remained, while more than 85% of the prodrugs 5a–h remained after incubation for 1 h in pH 7.4 buffer.
The stability of all compounds was investigated in PBS and human plasma by HPLC using a C18 analytical column. The mobile phase was composed of water and acetonitrile at a ratio of 70:30, respectively, containing 1% trifluoroacetic acid. The amount of the compound and its metabolite SN-38 were flowed at the rate of 0.8 mL·min^−1 and detected by the UV wavelength of 370 nm. Stability test in PBS: each compound was dissolved in PBS (pH 7.4 and pH 4.6), incubated at 37 °C and analyzed at 1, 3, 6, 12 h. Stability test in plasma: The test compounds were dissolved in DMSO and diluted to 1 mM by 0.9% physiological saline. Forty μL of each solution was added into plasma with a final concentration of 0.1 mM. The mixture was incubated in a 37 °C water bath following the vigorous vortex mixing for 15 s. Samples were analyzed at 1, 3, 6, 12 h. 400 μL of cold acetonitrile (containing 1% trifluoroacetic acid) was added to each sample, vortex-mixed for 15 s and centrifuged at 3500 rpm for 15 min at 4 °C.

[3] = test system: HeLa human cervical carcinoma cell line; experiment: MTT in vitro antitumor (antiproliferative) assay, HeLa; type: cell-based
Protocol: as §1, §2

[4] = test system: human colon adenocarcinoma SW1116 xenografts; experiment: Tumor growth inhibition in human colon adenocarcinoma SW1116 xenografts in nude mice; type: in vivo; conditions: 60 mg/kg; for Tumor Weight / Inhibitory Rate: injection in the tumor section once per day for 6 days; for Tumor Weight: SW1116 xenograft nude mice, x ± SD; for Inhibitory Rate: day 6, vs vehicle; for Body Weight Change: once per day for 6 days, nude mice
Protocol: The antitumor activity of 5e, compared with CPT-11 and SN-38, was investigated in human colon adenocarcinoma SW1116 xenografts in nude mice. The model animals were divided into four experimental groups, eight animals per group. Tested compouds were each administered by injection in the tumor section once per day for contiguous 6 days. The injection doses of test compound 5e, CPT-11, and SN-38 were 60 mg/kg, respectively. Using the vehicle group as the control, we tested the inhibitory activities of these compounds for 6 days and measured the changes in body weight and tumor size every 2 days. […] No toxic death occurred after drug treatment, and the body weight losses induced by 5e, CPT-11, and SN-38 at the given dose were similar.

[5] = parameters: method as in PMID 11716702, PMID 15217940, PMID 19495753; conditions: cited from earlier work

AChE from electric eel, sequence (O42275 24-633): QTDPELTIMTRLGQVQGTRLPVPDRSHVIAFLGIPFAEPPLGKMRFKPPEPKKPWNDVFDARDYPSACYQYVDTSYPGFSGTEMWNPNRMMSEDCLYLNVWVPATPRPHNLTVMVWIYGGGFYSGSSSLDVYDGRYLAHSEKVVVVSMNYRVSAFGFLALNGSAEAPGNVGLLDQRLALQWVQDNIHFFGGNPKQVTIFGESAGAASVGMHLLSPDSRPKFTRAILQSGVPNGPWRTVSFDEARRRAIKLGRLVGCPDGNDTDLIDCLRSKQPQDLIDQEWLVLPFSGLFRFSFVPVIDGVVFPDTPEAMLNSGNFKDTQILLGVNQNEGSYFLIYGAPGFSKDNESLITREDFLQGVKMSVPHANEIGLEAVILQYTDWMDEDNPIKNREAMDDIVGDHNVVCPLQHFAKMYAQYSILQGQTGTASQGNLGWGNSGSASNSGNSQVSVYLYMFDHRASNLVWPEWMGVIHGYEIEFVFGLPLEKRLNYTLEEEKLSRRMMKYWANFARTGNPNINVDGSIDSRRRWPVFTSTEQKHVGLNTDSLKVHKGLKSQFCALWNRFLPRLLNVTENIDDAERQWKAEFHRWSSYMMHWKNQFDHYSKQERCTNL

Compound | IC50 (AChE from electric eel; AChE IC50, electric eel AChE) [nM] | IC50 ([1]; SGC-7901, 72 h) [nM] | Remaining Prodrugs 1 h pH 4.6 [2] [%] | Remaining Prodrugs 12 h pH 4.6 [2] [%] | Remaining Prodrugs 1 h pH 7.4 [2] [%] | Remaining Prodrugs 12 h pH 7.4 [2] [%] | IC50 ([3]; 72 h, read-out: IC50 HeLa) [nM] | further results
CCc1c2c(nc3ccc(OC(=O)NCC(=O)O)cc13)-c1cc3c(c(=O)n1C2)COC(=O)[C@]3(O)CC [Compound 5a, 10-OCO-(Gly-OH)-SN-38] | 19800 | 2690 ± 110 | 100 | 98.4 | 85.3 | 14.8 | 30.4 | 
CCc1c2c(nc3ccc(OC(=O)NC(C)C(=O)O)cc13)-c1cc3c(c(=O)n1C2)COC(=O)[C@]3(O)CC (stereo partly drawn) [Compound 5b, 10-OCO-(Ala-OH)-SN-38] |  | 1750 ± 600 |  |  |  |  | 9.85 | 
CCc1c2c(nc3ccc(OC(=O)NC(C(=O)O)C(C)C)cc13)-c1cc3c(c(=O)n1C2)COC(=O)[C@]3(O)CC (stereo partly drawn) [Compound 5c, 10-OCO-(Val-OH)-SN-38] |  | 1880 ± 720 |  |  |  |  | 5.61 | 
CCc1c2c(nc3ccc(OC(=O)NC(CCC(=O)O)C(=O)O)cc13)-c1cc3c(c(=O)n1C2)COC(=O)[C@]3(O)CC (stereo partly drawn) [Compound 5d, 10-OCO-(Glu-OH)-SN-38] |  |  | 98.1 | 92.5 | 85.2 | 8.6 |  | 
CCc1c2c(nc3ccc(OC(=O)NC(CC(C)C)C(=O)O)cc13)-c1cc3c(c(=O)n1C2)COC(=O)[C@]3(O)CC (stereo partly drawn) [Compound 5e, 10-OCO-(Leu-OH)-SN-38] |  | 500 ± 190 |  |  |  |  | 1.82 | Tumor Weight [4]: 0.17 ± 0.05 g/10g
CCc1c2c(nc3ccc(OC(=O)NC(C(=O)O)C(C)CC)cc13)-c1cc3c(c(=O)n1C2)COC(=O)[C@]3(O)CC (stereo partly drawn) [Compound 5f, 10-OCO-(Ile-OH)-SN-38] | 1360 | 760 ± 340 |  |  |  |  | 3.64 | 
CCc1c2c(nc3ccc(OC(=O)N[C@H](CC(=O)O)C(=O)O)cc13)-c1cc3c(c(=O)n1C2)COC(=O)[C@]3(O)CC [Compound 5g, 10-OCO-(L-Asp-OH)-SN-38] | 3080 | 980 ± 50 | 100 | 94.5 | 93.9 | 34.1 | 9.07 | 
CCc1c2c(nc3ccc(OC(=O)N[C@@H](CC(=O)O)C(=O)O)cc13)-c1cc3c(c(=O)n1C2)COC(=O)[C@]3(O)CC [Compound 5h, 10-OCO-(D-Asp-OH)-SN-38] | 7430 | 240 | 100 | 94.5 | 93.4 | 52.2 | < 3.2 | fold greater antiproliferative activity (lower IC50) than irinotecan, SGC-7901 cells [1]: 30 fold
CCc1c2c(nc3ccc(OC(=O)NCC(=O)N[C@H](CC(=O)O)C(=O)O)cc13)-c1cc3c(c(=O)n1C2)COC(=O)[C@]3(O)CC [Compound 7a, 10-OCO-(D-Asp-Gly-OH)-SN-38] | 116000 | 1040 ± 900 | 100 | 96.8 | 26.0 | 0 | < 3.2 | 
CCc1c2c(nc3ccc(OC(=O)NCC(=O)N[C@@H](CC(=O)O)C(=O)O)cc13)-c1cc3c(c(=O)n1C2)COC(=O)[C@]3(O)CC [Compound 7b, 10-OCO-(L-Asp-Gly-OH)-SN-38] |  | 610 ± 680 | 100 | 96.9 | 17.6 | 0 | 14.8 | 
CCc1c2c(nc3ccc(OC(=O)NCC(=O)NC(CCC(=O)O)C(=O)O)cc13)-c1cc3c(c(=O)n1C2)COC(=O)[C@]3(O)CC (stereo partly drawn) [Compound 7c, 10-OCO-(Glu-Gly-OH)-SN-38] | > 100000 | 200 ± 70 | 100 | 96.4 | 29.4 | 0 | < 3.2 | fold greater antiproliferative activity (lower IC50) than irinotecan, SGC-7901 cells [1]: 30 fold
CCc1c2c(nc3ccc(OC(=O)NC(C)C(=O)N[C@H](CC(=O)O)C(=O)O)cc13)-c1cc3c(c(=O)n1C2)COC(=O)[C@]3(O)CC (stereo partly drawn) [Compound 7d, 10-OCO-(D-Asp-Ala-OH)-SN-38] | 4440 | 260 ± 640 | 100 | 95.5 | 26.3 | 0 | < 3.2 | fold greater antiproliferative activity (lower IC50) than irinotecan, SGC-7901 cells [1]: 30 fold
CCc1c2c(nc3ccc(OC(=O)NC(C)C(=O)N[C@@H](CC(=O)O)C(=O)O)cc13)-c1cc3c(c(=O)n1C2)COC(=O)[C@]3(O)CC (stereo partly drawn) [Compound 7e, 10-OCO-(L-Asp-Ala-OH)-SN-38] |  | 210 ± 550 | 100 | 94.5 | 23.4 | 0 | 12.9 | 
CCc1c2c(nc3ccc(OC(=O)NC(C)C(=O)NC(CCC(=O)O)C(=O)O)cc13)-c1cc3c(c(=O)n1C2)COC(=O)[C@]3(O)CC (stereo partly drawn) [Compound 7f, 10-OCO-(Glu-Ala-OH)-SN-38] | 36100 | 270 ± 180 | 100 | 94.7 | 14.4 | 0 | 1.57 | fold greater antiproliferative activity (lower IC50) than irinotecan, SGC-7901 cells [1]: 30 fold; IC50 ([3]; 72 h, read-out: IC50 against HeLa cells): < 3.2 nM
CCc1c2c(nc3ccc(OC(=O)N4CCC(N5CCCCC5)CC4)cc13)-c1cc3c(c(=O)n1C2)COC(=O)[C@]3(O)CC [Irinotecan, 7-ethyl-10-[4-(1-piperidino)-1-piperidino]-carbonyloxycamptothecin] |  |  |  |  |  |  |  | IC50 (AChE from electric eel; electric eel AChE, read-out: AChE IC50): 200 nM; IC50 ([1]; SGC-7901, MTT, 72 h incubation): 7380 ± 1240 nM; Tumor Weight [4]: 0.17 ± 0.04 g/10g; Inhibitory Rate [4]: 51%; Body Weight Change [4]: -3.10 g; Body Weight Change ([4]; listed as CPT-11): similar; IC50 ([3]; MTT, 72 h incubation, read-out: IC50 HeLa): 1320 ± 130 nM; bioconversion efficiency from irinotecan to the active form SN-38 [5]: 4%–5%
CCc1c2c(nc3ccc(O)cc13)-c1cc3c(c(=O)n1C2)COC(=O)[C@]3(O)CC [SN-38, 7-ethyl-10-hydroxycamptothecin] |  |  |  |  |  |  |  | Tumor Weight [4]: 0.32 ± 0.12 g/10g; Inhibitory Rate [4]: 8.6%
